Source: US20220324865A1 (Bayer Aktiengesellschaft, priority 2018, published 2022)

What follows are molecules tested against T1, human EP3 receptor (Homo sapiens, UniProt P43115) (assay: Cellular in vitro assay for determining EP3 receptor activity (human EP3 cell line, sulprostone-stimulated calcium luminescence)). Settings: CHO cells expressing human EP3 and mitochondrial Clytin; antagonist mode, sulprostone at EC50; read-out: EP3 CHO mtCLY ANTAG IC50.
T1 construct: expressed in transfected cells; host or cells: CHO K1 (Chinese Hamster Ovary), stably co-transfected with Galpha16 and mitochondrial clytin
T1 sequence (P43115 1-390): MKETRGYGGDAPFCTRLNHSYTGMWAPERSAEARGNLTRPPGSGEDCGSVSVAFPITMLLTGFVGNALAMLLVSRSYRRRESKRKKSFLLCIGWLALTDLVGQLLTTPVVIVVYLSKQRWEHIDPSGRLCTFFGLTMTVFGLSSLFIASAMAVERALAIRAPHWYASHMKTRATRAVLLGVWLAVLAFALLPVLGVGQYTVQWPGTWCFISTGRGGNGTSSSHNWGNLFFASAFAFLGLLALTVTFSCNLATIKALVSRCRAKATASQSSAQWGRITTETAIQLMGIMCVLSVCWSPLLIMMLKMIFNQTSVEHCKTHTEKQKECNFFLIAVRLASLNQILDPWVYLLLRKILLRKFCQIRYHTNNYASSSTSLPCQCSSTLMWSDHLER
Assay type: cell-based
Experimental: B-1. Cellular In Vitro Assay for Determining EP3 Receptor Activity
The identification of antagonists of the EP3 receptor from humans and rats as well as the quantification of the activity of the compounds of the invention was carried out using recombinant cell lines. These cell lines originally derive from a hamsters ovary epithelial cell (Chinese Hamster Ovary, CHO K1, ATCC: American Type Culture Collection, Manassas, Va. 20108, USA). The test cell lines constitutively express the human or rat EP3 receptors. The naturally Gαi-coupled human and rat EP3 receptors were stably co-transfected with Gα16 into cells that are also stably transfected with a mitochondrial form of the calcium-sensitive photoproteins Clytin (human EP3) or Photina (rat EP3), which, after reconstitution with the cofactor coelenterazine, emit light when there are increases in free calcium concentrations (Nature 1992, 358, 325-327; Gene 1995, 153 (2), 273-274). The resulting EP3 receptor cells react to stimulation of the recombinantly expressed EP3 receptors by the agonist sulprostone with intracellular release of calcium ions, which can be quantified by the resulting photoprotein luminescence. Antagonists inhibit the receptor signaling, leading to reduced calcium release and luminescence. The bioluminescence of the cell lines is detected using a suitable luminometer (Trends Pharmacol. Sci. 1996, 17, 235-237).
Human and Rat EP3 Cell Lines:
On the day before the assay, the cells are plated out in culture medium (OptiMEM, 1% FCS, 2 mM glutamine, 10 mM HEPES, 5 μg/ml coelenterazine) in 384-well microtiter plates and kept in a cell incubator (96% humidity, 5% v/v CO2, 37° C.). On the day of the assay, test compounds in various concentrations are placed for 10 minutes in the wells of the microtiter plate before the agonist sulprostone at EC50 concentration is added. The resulting light signal is measured immediately in a luminometer. All concentrations are measured in quadruples.

Row | Compound | IC50 [nM]
1 | O=C(NC(CO)C(F)(F)F)c1nn2cc(-c3ccc(Cl)c(F)c3)[nH]c(=O)c2c1C1CC1 (single isomer, unassigned) [6-94] | 5.8
2 | O=C(NC(c1ccc(F)cc1)C1(O)CC1)c1nn2cc(-c3ccc(Cl)c(F)c3)[nH]c(=O)c2c1C1CC1 (single isomer, unassigned) [6-97] | 3.25
3 | O=C(NC(c1ccc(F)cc1)C1(O)CC1)c1nn2cc(-c3ccc(Cl)c(F)c3)[nH]c(=O)c2c1C1CC1 (single isomer, unassigned) [6-98] | 0.68
4 | Cc1ccc(-c2cn3nc(C(=O)NCC(O)C(F)(F)F)c(C(F)(F)F)c3c(=O)[nH]2)cc1C (single isomer, unassigned) [6-117] | 3.85
5 | Cc1cc(-c2cn3nc(C(=O)NCC(N)C(F)(F)F)c(C4CC4)c3c(=O)[nH]2)ccc1C(F)(F)F (single isomer, unassigned) [6-131] | 10.1
6 | Cc1cc(-c2cn3nc(C(=O)NCC(N)C(F)(F)F)c(C4CC4)c3c(=O)[nH]2)ccc1C(F)(F)F (single isomer, unassigned) [6-132] | 7.6
7 | Cc1ccc(-c2cn3nc(C(=O)NC4CC4C(C)C)c(C(F)(F)F)c3c(=O)[nH]2)cc1F (single isomer, unassigned) [6-145] | 6.25
8 | Cc1ccc(-c2cn3nc(C(=O)NC(CO)c4ccc(F)cc4)c(C(F)(F)F)c3c(=O)[nH]2)cc1Cl (single isomer, unassigned) [6-155] | 2.8
9 | Cc1ccc(-c2cn3nc(C(=O)NC(CO)c4ccc(F)cc4)c(C(F)(F)F)c3c(=O)[nH]2)cc1Cl (single isomer, unassigned) [6-156] | 1.3
10 | Cc1ccc(-c2cn3nc(C(=O)NCC(O)C(F)(F)F)c(C(F)(F)F)c3c(=O)[nH]2)cc1Cl (single isomer, unassigned) [6-159] | 2.3
11 | Cc1ccc(-c2cn3nc(C(=O)NCC(O)C(F)(F)F)c(C(F)(F)F)c3c(=O)[nH]2)cc1Cl (single isomer, unassigned) [6-160] | 0.99
12 | Cc1ccc(-c2cn3nc(C(=O)NC(CO)C(F)(F)F)c(C(F)(F)F)c3c(=O)[nH]2)cc1Cl (single isomer, unassigned) [6-162] | 9.55
13 | Cc1ccc(-c2cn3nc(C(=O)NC(CO)C(F)(F)F)c(C(F)(F)F)c3c(=O)[nH]2)cc1Cl (single isomer, unassigned) [6-163] | 2.3
14 | Cc1ccc(-c2cn3nc(C(=O)NCC(C)(N)C(F)(F)F)c(C(F)(F)F)c3c(=O)[nH]2)cc1Cl (single isomer, unassigned) [6-170] | 2.1
15 | Cc1ccc(-c2cn3nc(C(=O)NCC(C)(N)C(F)(F)F)c(C(F)(F)F)c3c(=O)[nH]2)cc1Cl (single isomer, unassigned) [6-171] | 2.3
16 | Cc1ccc(-c2cn3nc(C(=O)NC(C)C4CCC4)c(C(F)(F)F)c3c(=O)[nH]2)cc1Cl (single isomer, unassigned) [6-194] | 2.55
17 | Cc1ccc(-c2cn3nc(C(=O)NC(C)C4CCC4)c(C(F)(F)F)c3c(=O)[nH]2)cc1Cl (single isomer, unassigned) [6-195] | 1.55
18 | Cc1cc(-c2cn3nc(C(=O)NC(c4ccc(F)cc4)C4(O)CC4)c(C(F)(F)F)c3c(=O)[nH]2)ccc1Cl (single isomer, unassigned) [6-211] | 1.18
19 | Cc1cc(-c2cn3nc(C(=O)NC(c4ccc(F)cc4)C4(O)CC4)c(C(F)(F)F)c3c(=O)[nH]2)ccc1Cl (single isomer, unassigned) [6-212] | 8.15
20 | Cc1cc(-c2cn3nc(C(=O)NC(C)C4CCC4)c(C(F)(F)F)c3c(=O)[nH]2)ccc1Cl (single isomer, unassigned) [6-223] | 1.25
21 | Cc1cc(-c2cn3nc(C(=O)NC(C)C4CCC4)c(C(F)(F)F)c3c(=O)[nH]2)ccc1Cl (single isomer, unassigned) [6-224] | 2
22 | Cc1cc(-c2cn3nc(C(=O)NC4CCN(C5CC5)C4)c(C(F)(F)F)c3c(=O)[nH]2)ccc1Cl (single isomer, unassigned) [6-241] | 9.5
23 | Cc1ccc(-c2cn3nc(C(=O)NCC(O)C(F)(F)F)c(C4CC4)c3c(=O)[nH]2)cc1C(F)(F)F (single isomer, unassigned) [6-244] | 5.55

Continued, values first:

Row | IC50 [nM] | Compound
24 | 2.2 | CC(C)(C)OC(=O)N1CC(C(NC(=O)c2cc3c(=O)[nH]c(-c4ccc5ccccc5c4)cn3n2)c2ccc(F)cc2)C1 (racemic) [Example 1-157, tert-Butyl 3-[(4-fluorophenyl)-[[6-(2-naphthyl)-4-oxo-5H-pyrazolo[1,5-a]pyrazine-2-carbonyl]amino]-methyl]azetidine-1-carboxylate (Racemate)]
25 | 2 | Cc1ccc(-c2cn3nc(C(=O)NCC(O)C(F)(F)F)c(C4CC4)c3c(=O)[nH]2)cc1F (racemic) [Example 1-159, 3-Cyclopropyl-6-(3-fluoro-4-methylphenyl)-4-oxo-N-(3,3,3-trifluoro-2-hydroxpropyl)-4,5-dihydro-pyrazolo[1,5-a]pyrazine-2-carboxamide (racemate)]
26 | 1.35 | Cc1ccc(-c2cn3nc(C(=O)NCC(O)C(F)(F)F)c(C4CC4)c3c(=O)[nH]2)cc1C(F)(F)F (single isomer, unassigned) [6-245]
27 | 3 | Cc1ccc(-c2cn3nc(C(=O)NC(CO)C(F)(F)F)c(C4CC4)c3c(=O)[nH]2)cc1C(F)(F)F (single isomer, unassigned) [6-249]
28 | 6.3 | Cc1ccc(-c2cn3nc(C(=O)NC(CO)C(F)(F)F)c(C4CC4)c3c(=O)[nH]2)cc1C(F)(F)F (single isomer, unassigned) [6-250]
29 | 0.64 | Cc1ccc(-c2cn3nc(C(=O)NCC(O)C(F)(F)F)c(C4CC4)c3c(=O)[nH]2)cc1Cl (single isomer, unassigned) [6-259]
30 | 0.82 | Cc1ccc(-c2cn3nc(C(=O)NCC(O)C(F)(F)F)c(C4CC4)c3c(=O)[nH]2)cc1Cl (single isomer, unassigned) [6-260]
31 | 5.7 | CCN1CCC(NC(=O)c2nn3cc(-c4ccc(Cl)c(C)c4)[nH]c(=O)c3c2C2CC2)(C(F)(F)F)C1 (single isomer, unassigned) [6-293]
32 | 9.95 | CCN1CCC(NC(=O)c2nn3cc(-c4ccc(Cl)c(C)c4)[nH]c(=O)c3c2C2CC2)(C(F)(F)F)C1 (single isomer, unassigned) [6-294]
33 | 4.4 | Cc1cc(-c2cn3nc(C(=O)NC(C)C4CCC4)c(C4CC4)c3c(=O)[nH]2)ccc1Cl (single isomer, unassigned) [6-299]
34 | 3.3 | Cc1cc(-c2cn3nc(C(=O)NC(C)C4CCC4)c(C4CC4)c3c(=O)[nH]2)ccc1Cl (single isomer, unassigned) [6-300]
35 | 2.55 | Cc1cc(-c2cn3nc(C(=O)NC(CO)C(F)(F)F)c(C4CC4)c3c(=O)[nH]2)ccc1Cl (single isomer, unassigned) [6-308]
36 | 0.91 | Cc1cc(-c2cn3nc(C(=O)NCCC(O)C(F)(F)F)c(C4CC4)c3c(=O)[nH]2)ccc1Cl (single isomer, unassigned) [6-310]
37 | 1.05 | Cc1cc(-c2cn3nc(C(=O)NCCC(O)C(F)(F)F)c(C4CC4)c3c(=O)[nH]2)ccc1Cl (single isomer, unassigned) [6-311]
38 | 1.65 | Cc1cc(-c2cn3nc(C(=O)NCC(O)C(F)(F)F)c(C4CC4)c3c(=O)[nH]2)ccc1Cl (single isomer, unassigned) [6-313]
39 | 0.85 | Cc1cc(-c2cn3nc(C(=O)NCC(O)C(F)(F)F)c(C4CC4)c3c(=O)[nH]2)ccc1Cl (single isomer, unassigned) [6-314]
40 | 1.35 | Cc1cc(-c2cn3nc(C(=O)NCC(C)(N)C(F)(F)F)c(C4CC4)c3c(=O)[nH]2)ccc1Cl (single isomer, unassigned) [6-320]
41 | 1.7 | Cc1cc(-c2cn3nc(C(=O)NCC(C)(N)C(F)(F)F)c(C4CC4)c3c(=O)[nH]2)ccc1Cl (single isomer, unassigned) [6-321]
42 | 3.3 | Cc1cc(-c2cn3nc(C(=O)N[C@H]4CCN(C5CC5)C4)c(C4CC4)c3c(=O)[nH]2)ccc1Cl (single isomer, unassigned) [6-323]
43 | 0.97 | Cc1cc(-c2cn3nc(C(=O)N[C@H]4CCN(C5CC5)C4)c(C4CC4)c3c(=O)[nH]2)ccc1Cl (single isomer, unassigned) [6-324]
44 | 3.55 | Cc1ccc(-c2cn3nc(C(=O)NC(C)c4ccc(O)cc4)cc3c(=O)[nH]2)cc1C (single isomer, unassigned) [6-348]
